In patent US20090206245A1, “Mass analysis method using fine metal particles” (Shionogi CO., Ltd, priority 2004, published 2009):

Target: β1-4 galactosyltransferase (GalT)
Assay: Inhibiting activity of UDP against GalT reaction on a sugar chain (GlcNAc)-fine gold particle complex, tracked by MALDI-TOF MS
Format: biochemical
Conditions: GlcNAc-Au 50 μM, UDP-Gal 400 μM, four mU GalT, HEPES buffer (10 mM MnCl2, 0.15 M NaCl), 25° C., 60 minutes; from plot of FIG. 8
Procedure: 100 μL of MHEPES buffer solution (10 mM MnCl2, 0.15 M NaCl) of the sugar chain-fine gold particles (GlcNAc-Au:50 μM) produced in accordance with Example 4 and UDP-Gal (400 μM), was prepared. Four mU of β1-4 galactosyltransferase (GalT) was added to the buffer solution, and the sugar chain elongation reaction was tracked at 25° C. by using MALDI-TOF Mass spectroscopy. The reaction solution was not subjected to centrifugal filtration, but to MALDI-TOF mass spectrometry using 2,5-dihydroxybenzoic acid (DHB) as a matrix (FIG. 6). […] FIG. 7 indicates a plot representing temporal variation in extent of the sugar-chain elongation reaction, which was derived from the spectrum shown in FIG. 6.
100 μL of MHEPES buffer solution (10 mM MnCl2, 0.15 M NaCl) of the sugar chain-fine gold particles (GlcNAc-Au: 50 μM) produced in accordance with Example 4 and UDP-Gal (400 μM), was prepared. Four mU of β1-4 galactosyltransferase (GalT) and UDP (prepared at nine concentration levels in the range of 0-50 μM) was then added to the buffer solution, and the solution was subjected to reaction at 25° C. for 60 minutes.

IC50: 300 µM
Structure (SMILES): O=c1ccn([C@@H]2O[C@H](COP(=O)(O)OP(=O)(O)O)[C@@H](O)[C@H]2O)c(=O)[nH]1 [UDP]
